Values quoted from earlier work, collected in patent US6342520B1, “Locally injectable chemotherapeutics” (priority 2000, dated 2002).

Conditions: Phase II clinical trials, administration by general circulation

## CC(=O)OC[C@]12CCC(C)=C[C@H]1O[C@@H]1[C@H](O)[C@@H](OC(C)=O)[C@@]2(C)[C@]12CO2 [Anguidine]
  hematologic toxicity: considerable hematologic toxicity
  overall tumor response rate: low
